Source: ChEMBL document CHEMBL4507291 (2021)

Tests used:
[1] = biological target: T1, Alpha-2C adrenergic receptor (Homo sapiens) (UniProt P18825); test: Adrenergic alpha2C Eurofins-Panlabs radioligand binding assay; design: ligand concentration 1 nM, non-specific ligand with concentration 10 µM WB-4101, incubation time 60 min, incubation temperature 25 °C; settings: Compound concentration 10.0 uM
T1 sequence (whole entry): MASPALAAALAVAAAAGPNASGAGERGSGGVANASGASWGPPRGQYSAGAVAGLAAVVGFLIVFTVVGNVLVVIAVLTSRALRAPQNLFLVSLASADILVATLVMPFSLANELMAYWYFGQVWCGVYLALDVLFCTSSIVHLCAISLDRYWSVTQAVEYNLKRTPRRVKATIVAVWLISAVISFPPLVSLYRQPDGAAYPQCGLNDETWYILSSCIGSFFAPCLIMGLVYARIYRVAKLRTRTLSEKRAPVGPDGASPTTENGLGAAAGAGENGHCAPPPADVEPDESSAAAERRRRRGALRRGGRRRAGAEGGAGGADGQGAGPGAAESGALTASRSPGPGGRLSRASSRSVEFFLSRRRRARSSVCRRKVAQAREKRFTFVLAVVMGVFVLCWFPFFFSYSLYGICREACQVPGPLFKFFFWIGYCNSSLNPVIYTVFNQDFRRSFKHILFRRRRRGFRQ

[2] = biological target: C-X-C chemokine receptor type 2 (Homo sapiens) (UniProt P25025); test: Inhibition of Chemokine CXCR2 (IL-8RB) at 10 µM in the Eurofins-Panlabs radioligand binding assay (Eurofins_assay_244500); settings: Compound concentration 10.0 uM
Sequence of C-X-C chemokine receptor type 2 (Homo sapiens) (P25025 whole entry): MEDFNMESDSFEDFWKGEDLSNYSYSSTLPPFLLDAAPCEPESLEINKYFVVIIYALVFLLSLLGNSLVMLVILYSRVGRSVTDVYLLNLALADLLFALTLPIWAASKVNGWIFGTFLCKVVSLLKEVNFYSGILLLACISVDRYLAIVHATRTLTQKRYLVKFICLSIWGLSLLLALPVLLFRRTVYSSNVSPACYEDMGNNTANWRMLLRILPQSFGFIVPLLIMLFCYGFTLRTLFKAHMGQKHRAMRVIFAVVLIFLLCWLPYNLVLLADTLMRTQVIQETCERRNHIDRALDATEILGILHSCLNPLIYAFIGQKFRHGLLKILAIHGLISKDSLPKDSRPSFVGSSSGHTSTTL

[3] = biological target: Tyrosine-protein kinase Blk (Homo sapiens) (UniProt P51451); test: BLK Kinase screen; settings: Compound concentration 1.0 uM
Sequence of Tyrosine-protein kinase Blk (Homo sapiens) (P51451 2-505 limits assumed): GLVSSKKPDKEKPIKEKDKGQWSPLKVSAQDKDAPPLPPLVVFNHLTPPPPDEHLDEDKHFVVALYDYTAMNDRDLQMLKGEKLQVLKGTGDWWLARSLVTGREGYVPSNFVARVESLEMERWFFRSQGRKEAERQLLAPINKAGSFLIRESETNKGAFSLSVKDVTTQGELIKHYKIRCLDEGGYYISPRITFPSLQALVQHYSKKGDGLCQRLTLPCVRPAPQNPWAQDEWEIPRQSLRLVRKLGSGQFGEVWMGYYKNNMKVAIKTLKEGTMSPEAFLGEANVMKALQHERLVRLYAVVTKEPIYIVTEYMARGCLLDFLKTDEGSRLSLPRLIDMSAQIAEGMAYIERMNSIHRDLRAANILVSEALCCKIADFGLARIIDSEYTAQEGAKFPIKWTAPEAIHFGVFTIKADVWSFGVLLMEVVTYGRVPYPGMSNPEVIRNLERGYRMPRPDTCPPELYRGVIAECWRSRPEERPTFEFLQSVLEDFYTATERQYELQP

[4] = biological target: Dual specificity protein kinase CLK4 (Homo sapiens) (UniProt Q9HAZ1); test: CLK4 Kinase screen; settings: Compound concentration 1.0 uM
[5] = biological target: Fibroblast growth factor receptor 4 (Homo sapiens) (UniProt P22455); test: FGFR4 Kinase screen; settings: Compound concentration 1.0 uM
Sequence of Fibroblast growth factor receptor 4 (Homo sapiens) (P22455 22-802 limits assumed): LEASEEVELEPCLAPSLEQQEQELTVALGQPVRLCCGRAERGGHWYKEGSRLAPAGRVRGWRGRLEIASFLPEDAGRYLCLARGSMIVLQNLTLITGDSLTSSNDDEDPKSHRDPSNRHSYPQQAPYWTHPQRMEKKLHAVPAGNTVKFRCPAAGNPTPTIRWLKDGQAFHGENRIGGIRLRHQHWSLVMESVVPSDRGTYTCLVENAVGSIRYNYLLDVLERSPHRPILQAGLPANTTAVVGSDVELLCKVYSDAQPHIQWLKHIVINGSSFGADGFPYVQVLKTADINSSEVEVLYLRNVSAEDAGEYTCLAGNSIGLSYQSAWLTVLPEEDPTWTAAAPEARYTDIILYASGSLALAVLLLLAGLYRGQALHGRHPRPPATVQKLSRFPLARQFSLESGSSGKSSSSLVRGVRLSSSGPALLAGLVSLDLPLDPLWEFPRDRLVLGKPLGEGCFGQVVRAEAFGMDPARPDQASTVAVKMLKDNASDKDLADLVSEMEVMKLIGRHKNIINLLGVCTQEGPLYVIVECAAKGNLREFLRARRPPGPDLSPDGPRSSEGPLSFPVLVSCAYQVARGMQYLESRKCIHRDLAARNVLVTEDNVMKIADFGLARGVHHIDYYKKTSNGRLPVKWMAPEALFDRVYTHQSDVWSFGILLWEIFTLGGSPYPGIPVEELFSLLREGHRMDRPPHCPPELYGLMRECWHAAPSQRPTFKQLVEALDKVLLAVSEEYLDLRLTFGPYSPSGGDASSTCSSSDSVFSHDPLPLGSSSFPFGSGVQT

[6] = biological target: Dual specificity mitogen-activated protein kinase kinase 1 (Homo sapiens) (UniProt Q02750); test: MAP2K1 (MEK1) Kinase screen; settings: Compound concentration 1.0 uM
[7] = biological target: Mitogen-activated protein kinase kinase kinase kinase 5 (Homo sapiens) (UniProt Q9Y4K4); test: MAP4K5 (KHS1) Kinase screen; settings: Compound concentration 1.0 uM
[8] = biological target: T2, Mitogen-activated protein kinase 13 (Homo sapiens) (UniProt O15264); test: MAPK13 (p38 delta) Kinase screen; settings: Compound concentration 1.0 uM
T2 sequence (whole entry): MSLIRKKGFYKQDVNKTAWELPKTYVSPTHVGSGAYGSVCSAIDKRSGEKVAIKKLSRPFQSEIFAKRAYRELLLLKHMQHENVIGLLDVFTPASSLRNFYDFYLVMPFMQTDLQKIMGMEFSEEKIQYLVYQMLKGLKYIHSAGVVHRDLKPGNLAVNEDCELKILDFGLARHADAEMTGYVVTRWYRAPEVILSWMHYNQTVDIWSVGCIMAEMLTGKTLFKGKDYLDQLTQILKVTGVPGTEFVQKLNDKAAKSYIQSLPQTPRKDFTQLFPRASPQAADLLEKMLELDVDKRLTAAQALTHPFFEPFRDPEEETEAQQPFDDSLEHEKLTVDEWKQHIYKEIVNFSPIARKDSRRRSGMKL

[9] = system: Platelet-derived growth factor receptor alpha (Homo sapiens), P16234 [V561D]; test: PDGFRA V561D Kinase screen; settings: Compound concentration 1.0 uM
Sequence of Platelet-derived growth factor receptor alpha (Homo sapiens), P16234 [V561D] (P16234 whole entry V561D, the tested form may be a part): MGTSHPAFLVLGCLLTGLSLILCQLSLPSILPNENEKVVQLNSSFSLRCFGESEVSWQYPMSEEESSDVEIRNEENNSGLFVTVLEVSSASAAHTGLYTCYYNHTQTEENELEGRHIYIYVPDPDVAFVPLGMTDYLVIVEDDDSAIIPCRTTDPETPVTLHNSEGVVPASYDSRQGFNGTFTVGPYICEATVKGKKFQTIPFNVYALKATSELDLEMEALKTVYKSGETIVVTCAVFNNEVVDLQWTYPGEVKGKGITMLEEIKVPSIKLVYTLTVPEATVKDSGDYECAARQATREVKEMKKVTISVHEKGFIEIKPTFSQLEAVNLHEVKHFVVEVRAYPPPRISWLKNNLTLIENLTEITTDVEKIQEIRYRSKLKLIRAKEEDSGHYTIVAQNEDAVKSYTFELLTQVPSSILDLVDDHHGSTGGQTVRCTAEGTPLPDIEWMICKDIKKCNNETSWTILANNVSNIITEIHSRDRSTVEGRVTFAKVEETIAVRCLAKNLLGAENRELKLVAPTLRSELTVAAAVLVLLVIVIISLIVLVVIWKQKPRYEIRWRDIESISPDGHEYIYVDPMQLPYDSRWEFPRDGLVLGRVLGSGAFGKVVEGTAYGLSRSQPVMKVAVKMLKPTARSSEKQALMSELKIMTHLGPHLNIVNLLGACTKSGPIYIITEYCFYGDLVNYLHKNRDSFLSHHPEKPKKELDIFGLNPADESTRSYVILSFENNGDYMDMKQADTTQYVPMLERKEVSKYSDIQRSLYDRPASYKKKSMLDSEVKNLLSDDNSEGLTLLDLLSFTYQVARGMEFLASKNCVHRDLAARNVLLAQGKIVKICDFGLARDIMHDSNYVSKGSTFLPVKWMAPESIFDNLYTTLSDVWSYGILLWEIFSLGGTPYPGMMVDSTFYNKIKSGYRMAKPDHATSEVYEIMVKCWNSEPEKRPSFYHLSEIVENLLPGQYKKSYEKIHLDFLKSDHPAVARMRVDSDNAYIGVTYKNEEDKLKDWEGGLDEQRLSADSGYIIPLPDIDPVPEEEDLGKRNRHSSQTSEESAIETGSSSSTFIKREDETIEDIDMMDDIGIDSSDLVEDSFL

[10] = biological target: Phosphatidylinositol 4-phosphate 3-kinase C2 domain-containing subunit beta (Homo sapiens) (UniProt O00750); test: PIK3C2B (PI3K-C2 beta) Kinase screen; settings: Compound concentration 1.0 uM
[11] = PRKCB2 (PKC beta II) Kinase screen; settings: Compound concentration 1.0 uM
[12] = biological target: T3, Protein kinase C iota type (Homo sapiens) (UniProt P41743); test: PRKCI (PKC iota) Kinase screen; settings: Compound concentration 1.0 uM
T3 sequence (whole entry): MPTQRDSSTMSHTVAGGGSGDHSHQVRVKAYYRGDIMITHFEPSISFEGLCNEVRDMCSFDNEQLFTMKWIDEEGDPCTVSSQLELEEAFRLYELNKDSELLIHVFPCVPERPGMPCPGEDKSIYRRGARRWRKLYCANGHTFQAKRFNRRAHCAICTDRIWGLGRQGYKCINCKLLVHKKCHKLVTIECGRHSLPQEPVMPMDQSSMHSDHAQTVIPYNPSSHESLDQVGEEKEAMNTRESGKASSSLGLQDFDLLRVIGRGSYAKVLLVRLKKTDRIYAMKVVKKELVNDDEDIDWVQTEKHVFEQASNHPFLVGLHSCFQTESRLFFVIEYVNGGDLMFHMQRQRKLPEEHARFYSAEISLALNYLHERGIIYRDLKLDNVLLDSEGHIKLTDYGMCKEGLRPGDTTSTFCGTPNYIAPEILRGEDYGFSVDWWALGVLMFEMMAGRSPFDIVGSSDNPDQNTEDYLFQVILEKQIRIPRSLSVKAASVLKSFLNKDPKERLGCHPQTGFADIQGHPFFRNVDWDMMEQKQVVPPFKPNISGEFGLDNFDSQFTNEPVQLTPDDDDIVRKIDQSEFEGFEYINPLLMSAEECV

[13] = biological target: Ribosomal protein S6 kinase alpha-5 (Homo sapiens) (UniProt O75582); test: RPS6KA5 (MSK1) Kinase screen; settings: Compound concentration 1.0 uM
Sequence of Ribosomal protein S6 kinase alpha-5 (Homo sapiens) (O75582 whole entry, looked up): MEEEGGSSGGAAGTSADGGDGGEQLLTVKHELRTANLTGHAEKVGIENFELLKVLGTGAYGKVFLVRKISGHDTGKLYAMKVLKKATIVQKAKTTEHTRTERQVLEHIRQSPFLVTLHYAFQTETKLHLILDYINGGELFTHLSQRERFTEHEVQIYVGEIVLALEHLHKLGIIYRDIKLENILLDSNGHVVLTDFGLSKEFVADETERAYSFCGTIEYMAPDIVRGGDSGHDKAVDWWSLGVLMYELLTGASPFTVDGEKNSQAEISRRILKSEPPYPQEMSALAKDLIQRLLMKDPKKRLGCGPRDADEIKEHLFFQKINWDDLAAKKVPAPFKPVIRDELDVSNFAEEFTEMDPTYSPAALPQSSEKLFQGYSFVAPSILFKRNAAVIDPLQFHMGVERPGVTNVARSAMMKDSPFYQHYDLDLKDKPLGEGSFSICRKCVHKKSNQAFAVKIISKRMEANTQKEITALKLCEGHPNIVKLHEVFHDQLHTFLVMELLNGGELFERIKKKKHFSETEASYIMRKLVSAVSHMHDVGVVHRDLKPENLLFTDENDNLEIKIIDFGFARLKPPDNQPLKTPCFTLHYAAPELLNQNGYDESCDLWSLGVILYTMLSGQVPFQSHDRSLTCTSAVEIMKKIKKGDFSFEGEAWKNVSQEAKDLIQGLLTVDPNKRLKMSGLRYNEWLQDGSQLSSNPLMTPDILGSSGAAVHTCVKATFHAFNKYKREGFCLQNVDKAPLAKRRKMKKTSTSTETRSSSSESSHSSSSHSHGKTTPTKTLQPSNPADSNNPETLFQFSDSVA

[14] = biological target: Tyrosine-protein kinase Yes (Homo sapiens) (UniProt P07947); test: YES1 Kinase screen; settings: Compound concentration 1.0 uM
Sequence of Tyrosine-protein kinase Yes (Homo sapiens) (P07947 2-543 limits assumed): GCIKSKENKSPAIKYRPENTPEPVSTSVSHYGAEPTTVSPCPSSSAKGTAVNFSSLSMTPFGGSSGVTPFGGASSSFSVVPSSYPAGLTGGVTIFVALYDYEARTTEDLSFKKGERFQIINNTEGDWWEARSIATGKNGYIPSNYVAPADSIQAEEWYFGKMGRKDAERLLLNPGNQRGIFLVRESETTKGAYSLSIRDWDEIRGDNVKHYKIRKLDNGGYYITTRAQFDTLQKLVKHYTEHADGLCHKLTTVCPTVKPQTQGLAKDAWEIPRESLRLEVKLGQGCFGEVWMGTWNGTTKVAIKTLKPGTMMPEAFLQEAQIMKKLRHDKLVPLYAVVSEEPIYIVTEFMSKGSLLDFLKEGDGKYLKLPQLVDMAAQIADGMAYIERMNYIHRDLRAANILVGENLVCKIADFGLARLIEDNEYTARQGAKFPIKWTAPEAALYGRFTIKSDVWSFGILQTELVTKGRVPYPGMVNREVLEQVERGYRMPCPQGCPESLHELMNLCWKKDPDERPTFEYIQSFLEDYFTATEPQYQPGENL

[15] = biological target: T4, Tyrosine-protein kinase ZAP-70 (Homo sapiens) (UniProt P43403); test: ZAP70 Kinase screen; settings: Compound concentration 1.0 uM
T4 sequence (whole entry): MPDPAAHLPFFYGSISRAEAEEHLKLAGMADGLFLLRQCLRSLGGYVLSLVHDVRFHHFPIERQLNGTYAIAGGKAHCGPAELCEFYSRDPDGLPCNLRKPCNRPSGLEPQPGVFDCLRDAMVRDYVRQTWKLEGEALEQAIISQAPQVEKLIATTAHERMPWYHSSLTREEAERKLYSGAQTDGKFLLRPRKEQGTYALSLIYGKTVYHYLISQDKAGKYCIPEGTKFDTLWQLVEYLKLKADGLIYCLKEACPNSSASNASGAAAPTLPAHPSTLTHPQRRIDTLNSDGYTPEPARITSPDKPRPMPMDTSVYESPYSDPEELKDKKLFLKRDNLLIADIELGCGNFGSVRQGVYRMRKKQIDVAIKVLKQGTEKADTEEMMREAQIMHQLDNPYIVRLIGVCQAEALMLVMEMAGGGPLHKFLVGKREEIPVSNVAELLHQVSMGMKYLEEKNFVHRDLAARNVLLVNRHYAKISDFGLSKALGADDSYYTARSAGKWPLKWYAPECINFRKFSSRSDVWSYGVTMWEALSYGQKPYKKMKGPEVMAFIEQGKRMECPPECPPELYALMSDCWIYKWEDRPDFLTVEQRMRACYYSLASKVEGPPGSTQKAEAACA

[16] = biological target: MAP/microtubule affinity-regulating kinase 3 (Homo sapiens) (UniProt P27448); test: Protein Serine/Threonine Kinase, MARK3 Eurofins-Panlabs enzyme assay; settings: Compound concentration 10.0 uM
Sequence of MAP/microtubule affinity-regulating kinase 3 (Homo sapiens) (P27448 whole entry, looked up): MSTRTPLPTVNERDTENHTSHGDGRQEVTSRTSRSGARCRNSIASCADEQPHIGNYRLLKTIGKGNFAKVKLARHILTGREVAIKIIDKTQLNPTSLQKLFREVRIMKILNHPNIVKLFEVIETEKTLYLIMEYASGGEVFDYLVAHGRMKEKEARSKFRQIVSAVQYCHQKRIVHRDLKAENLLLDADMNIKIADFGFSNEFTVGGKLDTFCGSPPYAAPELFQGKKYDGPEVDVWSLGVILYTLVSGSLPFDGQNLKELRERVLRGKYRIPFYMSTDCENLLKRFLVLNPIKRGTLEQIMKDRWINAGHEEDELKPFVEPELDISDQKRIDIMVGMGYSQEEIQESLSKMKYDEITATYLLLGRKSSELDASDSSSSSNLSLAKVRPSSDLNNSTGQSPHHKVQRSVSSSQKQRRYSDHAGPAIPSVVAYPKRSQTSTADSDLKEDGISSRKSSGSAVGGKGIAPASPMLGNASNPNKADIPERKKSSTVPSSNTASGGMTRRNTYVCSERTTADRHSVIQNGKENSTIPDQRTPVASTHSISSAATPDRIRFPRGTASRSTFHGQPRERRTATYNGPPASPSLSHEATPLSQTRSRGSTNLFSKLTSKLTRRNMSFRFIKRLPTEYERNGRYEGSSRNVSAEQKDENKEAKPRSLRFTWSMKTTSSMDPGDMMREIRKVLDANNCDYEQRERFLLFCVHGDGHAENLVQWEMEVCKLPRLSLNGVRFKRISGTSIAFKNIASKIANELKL

[17] = system: Leucine-rich repeat serine/threonine-protein kinase 2 (Homo sapiens), Q5S007 [G2019S]; settings: Compound concentration 1000.0 nM
[18] = biological target: Muscarinic acetylcholine receptor M2 (Homo sapiens) (UniProt P08172); settings: Compound concentration 10.0 uM

Q: Which results are given for `C[C@@H]1CN(c2cc(-c3n[nH]c4ccc(OC5(C)CC5)cc34)ncn2)C[C@H](C)O1` [MLi-2]?
A: inhibition [1]: 14%; inhibition [2]: 1%; inhibition [3]: 8.15%; inhibition [4]: 80.1%; inhibition [5]: 14.8%; inhibition [6]: 8.27%; inhibition [7]: 3.26%; inhibition [8]: 4.25%; inhibition [9]: 8.06%; inhibition [10]: -3.26%; inhibition [11]: 10.4%; inhibition [12]: -0.512%; inhibition [13]: 0.435%; inhibition [14]: 5.77%; inhibition [15]: 10.2%; inhibition [16]: 11%

Q: For `C[C@@H]1CN(c2cc(-c3nn(C)c4ccc(OC5(C)CC5)cc34)ncn2)C[C@H](C)O1` [MLi-2-NC], which residual activity [17] is on record?
A: Its residual activity is 36%.

Q: What about the inhibition [18] of the same compound?
A: The inhibition was 21%.
